Experimental data as given in patent US20250197436A1, “GALACTOOLIGOSACCHARIDE COMPOSITION” (priority 2022, published 2025).

System: microbiota present in the faecal samples
Assay: Faecal fermentation, distribution of oligosaccharides (HPAEC-PAD peak areas)
Excerpt: HPAEC-PAD (high performance anion exchange chromatography) equipped with a PA-1 column was used for separation of mono- and oligosaccharides of the different samples. […] The samples as used for GPC were 100-fold diluted with DMSO before injection.
The distribution of oligosaccharides in the mixtures was also monitored over this time period using the method described above in relation to Table 2.

[1] = Comp. Ex. 1 sample, 6 h, Donor A
[2] = Comp. Ex. 1 sample, 6 h, Donor B
[3] = Comp. Ex. 1 sample, 6 h, Donor C
[4] = Comp. Ex. 1 sample, 24 h, Donor A
[5] = Comp. Ex. 1 sample, 24 h, Donor B
[6] = Comp. Ex. 1 sample, 24 h, Donor C
[7] = Comp. Ex. 1 sample, 48 h, Donor A
[8] = Comp. Ex. 1 sample, 48 h, Donor B
[9] = Comp. Ex. 1 sample, 48 h, Donor C
[10] = Example 2 sample, 24 h, Donor A
[11] = Example 2 sample, 24 h, Donor B
[12] = Example 2 sample, 24 h, Donor C
[13] = Example 2 sample, 48 h, Donor A
[14] = Example 2 sample, 48 h, Donor B
[15] = Example 2 sample, 48 h, Donor C

| SMILES | Peak areas (Comp. Ex. 1 sample, 0 h) | Peak areas [1] | Peak areas [2] | Peak areas [3] | Peak areas [4] | Peak areas [5] | Peak areas [6] | Peak areas [7] | Peak areas [8] | Peak areas [9] | Peak areas (Example 2 sample, 0 h) | Peak areas (Example 2 sample, 6 h, Donor A) | Peak areas (Example 2 sample, 6 h, Donor B) | Peak areas (Example 2 sample, 6 h, Donor C) | Peak areas [10] | Peak areas [11] | Peak areas [12] | Peak areas [13] | Peak areas [14] | Peak areas [15] |
| --- | --- | --- | --- | --- | --- | --- | --- | --- | --- | --- | --- | --- | --- | --- | --- | --- | --- | --- | --- | --- |
| OC[C@H]1O[C@@H](OC[C@H]2OC(O)[C@H](O)[C@@H](O)[C@@H]2O)[C@H](O)[C@@H](O)[C@H]1O (some centres unmarked) [Allolactos, Allolactose] | 16.2 | 0.0 | 0.0 | 0.0 | 0.0 | 0.0 | 0.0 | 0.0 | 0.0 | 0.0 | 24 | 1.3 | 0.0 | 0.0 | 0.0 | 0.0 | 0.0 | 0.0 | 0.0 | 0.0 |
| OC[C@H]1O[C@@H](O[C@@H]2[C@H](O)[C@@H](O)[C@H](O[C@H]3[C@H](O)[C@@H](O)C(O)O[C@@H]3CO)O[C@@H]2CO)[C@H](O)[C@@H](O)[C@H]1O (stereo partly drawn) [Cpd. ID 11, D-Gal-(β1-4)-D-Gal-(β1-4)-D-Glu] | 27.6 | 1.9 | 5.7 | 1.6 | 1.9 | 2.0 | 0.7 | 0.0 | 1.9 | 0.2 | 20.4 | 3.2 | 4.5 | 1.6 | 1.2 | 1.7 | 0.5 | 0.3 | 2.6 | 0.6 |
| OC[C@H]1O[C@@H](O[C@H]2[C@@H](O)[C@@H](CO)O[C@@H](O[C@H]3[C@H](O)[C@@H](O)C(O)O[C@@H]3CO)[C@@H]2O)[C@H](O)[C@@H](O)[C@H]1O (stereo partly drawn) [Cpd. ID 12, D-Gal-(β1-3)-D-Gal-(β1-4)-D-Glu] | 1.4 | 1.4 | 0.8 | 0.9 | 0.4 | 0.4 | 0.4 | 0.1 | 1.1 | 0.1 | 28.9 | 1.1 | 5.4 | 1.2 | 0.4 | 0.7 | 0.3 | 0.3 | 0.7 | 0.2 |
| OC[C@H]1O[C@@H](O[C@H]2[C@@H](O)[C@@H](CO)O[C@@H](O[C@H]3[C@H](O)[C@@H](CO)OC(O)[C@@H]3O)[C@@H]2O)[C@H](O)[C@@H](O)[C@H]1O (stereo partly drawn) [Cpd. ID 29, D-Gal-(β1-3)-D-Gal-(β1-3)-D-Glu] | 4.7 | 0.1 | 2.0 | 1.0 | 0.2 | 0.4 | 0.0 | 0.0 | 0.3 | 0.0 | 12.8 | 1.1 | 2.0 | 0.4 | 0.0 | 0.0 | 0.0 | 0.1 | 0.4 | 0.1 |
| OC[C@H]1O[C@@H](O[C@H]2[C@@H](O)[C@@H](CO)O[C@@H](O[C@H]3C(O)O[C@H](CO)[C@@H](O)[C@@H]3O)[C@@H]2O)[C@H](O)[C@@H](O)[C@H]1O (stereo partly drawn) [Cpd. ID 30, D-Gal-(β1-3)-D-Gal-(β1-2)-D-Glu] | 2.6 | 0.0 | 1.3 | 0.3 | 0.0 | 0.5 | 0.0 | 0.0 | 0.6 | 0.0 | 12.6 | 0.0 | 1.8 | 0.9 | 0.0 | 0.5 | 0.0 | 0.1 | 0.0 | 0.2 |
| OC[C@H]1O[C@@H](O[C@H]2[C@@H](O)[C@@H](CO)O[C@@H](O[C@H]3[C@@H](O)[C@@H](CO)O[C@@H](O[C@H]4[C@H](O)[C@@H](O)C(O)O[C@@H]4CO)[C@@H]3O)[C@@H]2O)[C@H](O)[C@@H](O)[C@H]1O (stereo partly drawn) [Cpd. ID 31, D-Gal-(β1-3)-D-Gal-(β1-3)-D-Gal-(β1-4)-D-Glu] | 0.8 | 0.0 | 0.5 | 0.3 | 0.5 | 0.5 | 0.0 | 0.0 | 0.4 | 0.0 | – | 0.0 | 2.0 | 0.3 | 0.2 | 0.3 | 0.0 | 0.0 | 0.0 | 0.0 |
| O=C[C@H](O)[C@@H](O)[C@@H](O)[C@H](O)CO [Galactose] | 0.5 | 2.4 | 45.1 | 0.7 | 0.0 | 0.1 | 0.0 | 0.0 | 0.0 | 0.0 | 1.3 | 2.1 | 47.3 | 0.8 | 0.0 | 0.1 | 0.0 | 0.0 | 0.0 | 0.0 |
| O=C[C@H](O)[C@@H](O)[C@H](O)[C@H](O)CO [Glucose] | 19.5 | 2.9 | 34.1 | 0.2 | 0.0 | 0.1 | 0.0 | 0.0 | 0.0 | 0.0 | 17.5 | 2.6 | 26.9 | 0.3 | 0.0 | 0.0 | 0.0 | 0.0 | 0.0 | 0.0 |
| OC[C@H]1O[C@@H](O[C@H]2[C@H](O)[C@@H](O)C(O)O[C@@H]2CO)[C@H](O)[C@@H](O)[C@H]1O (some centres unmarked) [Lactose] | 48.4 | 0.7 | 1.9 | 0.4 | 0.4 | 0.5 | 0.4 | 0.3 | 0.5 | 0.3 | 30.9 | 0.3 | 5.3 | 0.6 | 0.3 | 0.4 | 0.4 | 0.3 | 0.5 | 0.3 |
